Values after ≈ are worked out from the molar mass of the structure shown. Like-named read-outs stand apart in the source and are kept apart here. Marks after values point to notes of the source that are not given here.
Key:
[1] = system: VanA VRE; assay: Antimicrobial assay, MIC for VanA VRE; type: cell-based, E. faecalis and E. faecium
Description: (§1) Assays were carried out following the methods of Clinical and Laboratory Standards Institute; Methods for Dilution Antimicrobial Susceptibility Tests for Bacteria That Grow Aerobically; Approved Standard, […].; CLSI document M07-A8; Clinical and Laboratory Standards Institute: Wayne, Pa., 2009.
(§2) This diluted bacterial stock solution was then inoculated into a well of a V-shaped 96-well glass coated microtiter plate, supplemented with serial diluted aliquots of the antibiotic solution DMSO (4 μL), to achieve a total assay volume of 0.1 mL. The plate was then incubated at 37° C. for 18 hours, after which minimal inhibitory concentrations (MICs) were determined by monitoring the cell growth (observed as a pellet) in the wells. The lowest concentration of antibiotic (in μg/mL) capable of eliminating the cell growth in the wells is reported as the MIC.

[2] = system: Enterococcus faecium (VanA VRE, ATCC BAA-2317); assay: Antimicrobial assay, MIC, VanA E. faecium; type: cell-based; settings: for MIC: Enterococcus faecium
Description: as §1, §2

[3] = system: panel of Gram-positive bacteria (VSSA, MRSA, VanA and VanB VRE); assay: Antimicrobial assay, MIC across the bacterial panel; type: cell-based, S. aureus, E. faecalis, E. faecium
Description: as §1, §2

[4] = system: methicillin and oxacillin-resistant Staphylococcus aureus subsp. aureus (MRSA strain ATCC 43300); assay: Antimicrobial assay, MIC, MRSA; type: cell-based; settings: for MIC: Staphylococcus aureus
Description: as §1, §2

[5] = system: vancomycin-sensitive Staphylococcus aureus (VSSA strain ATCC 25923); assay: Antimicrobial assay, MIC, vancomycin-sensitive S. aureus; type: cell-based; settings: ATCC 25923; for MIC: Staphylococcus aureus
Description: as §1, §2

[6] = system: vancomycin-resistant Enterococcus faecalis (VanB VRE, strain ATCC 51299); assay: microbe, parasite or virus in culture; type: cell-based; settings: for MIC: Enterococcus faecalis
Description: as §1, §2

[7] = system: vancomycin-resistant Enterococcus faecalis (VanA VRE, BM4166); assay: microbe, parasite or virus in culture; type: cell-based; settings: for MIC: Enterococcus faecalis, VRE
Description: as §1, §2

[8] = Binding of model ligand 11 (Y = NH), association constant Ka; settings: ratio of Ka for ligand 11 to ligand 12
[9] = cited from earlier work; for ligand, Ka (M^−1), 11, Y = NH: association constant, ligand 11 (Y = NH)
[10] = cited from earlier work; for ligand, Ka (M^−1), 12, Y = O: association constant, ligand 12 (Y = O)
[11] = system: vancomycin-resistant Enterococcus faecalis (VanA VRE, BM4166); settings: E. faecalis (BM4166, VanA VRE); earlier studies; cited from earlier work
[12] = system: VSSA and MRSA; assay: Antimicrobial assay, MIC for VSSA and MRSA together; type: cell-based, S. aureus; settings: one value stated for both strains
Description: as §1, §2

[13] = system: vancomycin-sensitive strain of E. faecium; settings: Kahne et al., Chem. Rev. 2005; cited from earlier work

CN[C@H](CC(C)C)C(=O)N[C@H]1C(=O)N[C@@H](CC(N)=O)C(=O)N[C@H]2C(=N)NC3C(=O)N[C@H](C(=O)N[C@H](C(=O)O)c4cc(O)cc(O)c4-c4cc3ccc4O)[C@H](O)c3ccc(c(Cl)c3)Oc3cc2cc(c3OC2OC(CO)C(O)[C@H](O)[C@@H]2O[C@H]2CC(C)(NCc3ccc(-c4ccc(Cl)cc4)cc3)[C@H](O)[C@H](C)O2)Oc2ccc(cc2Cl)[C@H]1O (some centres unmarked) [Compound 6, N-4-(4′-chlorobiphenyl)methyl [Ψ[C(═NH)NH]Tpg^4]-vancomycin]
increase in activity against VanA VRE relative to vancomycin (Compound 1) [1]: 50,000 fold | MIC ([1]; Enterococcus, VRE, read-out: MIC against VanA VRE): 0.005 µg/mL (≈ 0.00303 µM) | improvement in activity against VanA VRE on introduction of the (4-chlorobiphenyl)methyl group ([1]; relative to the analogue without CBP group): 100 fold | MIC ([2]; read-out: MIC, Van A E. faecium, serum concentration 10%): 0.005 µg/mL (≈ 0.00303 µM) | MIC ([2]; read-out: MIC, Van A E. faecium, serum concentration 25%): 0.06 µg/mL (≈ 0.0364 µM) | MIC ([2]; read-out: MIC, Van A E. faecium, serum concentration 100%): 0.5 µg/mL (≈ 0.303 µM) | MIC ([2]; read-out: MIC, VanA E. faecium): 0.005 µg/mL (≈ 0.00303 µM) | potency relative to Compound 17, on average across the panel [3]: 15 fold | MIC ([4]; read-out: MIC, MRSA S. aureus): 0.06 µg/mL (≈ 0.0364 µM) | MIC ([4]; read-out: MIC, MRSA S. aureus, serum concentration 10%): 0.06 µg/mL (≈ 0.0364 µM) | MIC ([4]; read-out: MIC, MRSA S. aureus, serum concentration 25%): 0.24 µg/mL (≈ 0.146 µM) | MIC ([4]; read-out: MIC, MRSA S. aureus, serum concentration 100%): 1 µg/mL (≈ 0.606 µM) | MIC ([5]; ATCC25923, read-out: MIC, sensitive S. aureus, serum concentration 10%, 10%): 0.03 µg/mL (≈ 0.0182 µM) | MIC ([5]; ATCC25923, read-out: MIC, sensitive S. aureus, serum concentration 100%, 100%): 1 µg/mL (≈ 0.606 µM) | MIC ([5]; ATCC25923, 25%, read-out: MIC, sensitive S. aureus, serum concentration 25%): 0.12 µg/mL (≈ 0.0728 µM) | MIC ([5]; ATCC25923, read-out: MIC, sensitive S. aureus): 0.03 µg/mL (≈ 0.0182 µM) | MIC ([6]; read-out: MIC, Van B E. faecalis, serum concentration 10%): 0.06 µg/mL (≈ 0.0364 µM) | MIC ([6]; read-out: MIC, Van B E. faecalis, serum concentration 25%): 0.12 µg/mL (≈ 0.0728 µM) | MIC ([6]; read-out: MIC, Van B E. faecalis, serum concentration 100%): 1 µg/mL (≈ 0.606 µM) | MIC ([6]; read-out: MIC, VanB E. faecalis): 0.06 µg/mL (≈ 0.0364 µM) | MIC ([7]; read-out: MIC, Van A E. faecalis, serum concentration 10%): 0.005 µg/mL (≈ 0.00303 µM) | MIC ([7]; read-out: MIC, Van A E. faecalis, serum concentration 25%): 0.06 µg/mL (≈ 0.0364 µM) | MIC ([7]; read-out: MIC, Van A E. faecalis, serum concentration 100%): 0.5 µg/mL (≈ 0.303 µM) | MIC ([7]; read-out: MIC, VanA E. faecalis): 0.005 µg/mL (≈ 0.00303 µM)

CN[C@H](CC(C)C)C(=O)N[C@H]1C(=O)N[C@@H](CC(N)=O)C(=O)N[C@H]2C(=N)NC3C(=O)N[C@H](C(=O)N[C@H](C(=O)O)c4cc(O)cc(O)c4-c4cc3ccc4O)[C@H](O)c3ccc(c(Cl)c3)Oc3cc2cc(c3O)Oc2ccc(cc2Cl)[C@H]1O [Compound 9, [Ψ[C(═NH)NH]Tpg^4]vancomycin aglycon]
Ka(11/12) [8]: 1.05 | binding affinity for both target ligands relative to vancomycin aglycon with D-Ala-D-Ala ([9]; D-Ala-D-Ala and D-Ala-D-Lac): ≤ 2 fold | ligand, Ka (M^−1), 11, Y = NH [9]: 73000 M⁻¹ | ligand, Ka (M^−1), 12, Y = O [10]: 69000 M⁻¹ | VanA MIC, μg/mL ([7]; E. faecalis (BM4166, VanA VRE), tested herein alongside Compounds 1-6): 1^b μg/mL

CN[C@H](CC(C)C)C(=O)N[C@H]1C(=O)N[C@@H](CC(N)=O)C(=O)N[C@H]2C(=S)NC3C(=O)N[C@H](C(=O)N[C@H](C(=O)O)c4cc(O)cc(O)c4-c4cc3ccc4O)[C@H](O)c3ccc(c(Cl)c3)Oc3cc2cc(c3O)Oc2ccc(cc2Cl)[C@H]1O [Compound 8, [Ψ[C(═S)NH]Tpg^4]vancomycin aglycon]
ligand, Ka (M^−1), 11, Y = NH [9]: 170 M⁻¹ | VanA MIC [11]: >640 µg/mL | ligand, Ka (M^−1), 12, Y = O [10]: 11 M⁻¹

CN[C@H](CC(C)C)C(=O)N[C@H]1C(=O)N[C@@H](CC(N)=O)C(=O)N[C@H]2C(=O)N[C@H]3C(=O)N[C@H](C(=O)N[C@H](C(=O)O)c4cc(O)cc(O)c4-c4cc3ccc4O)[C@H](O)c3ccc(c(Cl)c3)Oc3cc2cc(c3O[C@@H]2O[C@H](CO)[C@@H](O)[C@H](O)[C@H]2O[C@H]2C[C@](C)(N)[C@H](O)[C@H](C)O2)Oc2ccc(cc2Cl)[C@H]1O [Compound 1, vancomycin, reference compound]
MIC against VanA VRE ([1]; stated for VanA VRE): 250 µg/mL (≈ 173 µM) | MIC, VanA E. faecium ([2]; ATCC BAA-2317): 250 µg/mL (≈ 173 µM) | MIC, Van A E. faecium, serum concentration 10% ([2]; ATCC BAA-2317, 10%): 250 µg/mL (≈ 173 µM) | MIC, Van A E. faecium, serum concentration 25% ([2]; ATCC BAA-2317, 25%): 250 µg/mL (≈ 173 µM) | MIC, Van A E. faecium, serum concentration 100% ([2]; ATCC BAA-2317, 100%): 500 µg/mL (≈ 345 µM) | MIC against VSSA and MRSA [12]: 0.5 µg/mL (≈ 0.345 µM) | MIC, MRSA S. aureus ([4]; ATCC 43300): 0.5 µg/mL (≈ 0.345 µM) | MIC, MRSA S. aureus, serum concentration 10% ([4]; ATCC 43300, 10%): 0.5 µg/mL (≈ 0.345 µM) | MIC, MRSA S. aureus, serum concentration 25% ([4]; ATCC 43300, 25%): 0.5 µg/mL (≈ 0.345 µM) | MIC, MRSA S. aureus, serum concentration 100% ([4]; ATCC 43300, 100%): 1 µg/mL (≈ 0.69 µM) | reduction of binding affinity for the altered ligand D-Ala-D-Lac ([10]; relative to D-Ala-D-Ala): 1000 fold | MIC, vancomycin-sensitive strain of E. faecium [13]: 1 µg/mL | MIC, sensitive S. aureus [5]: 0.5 µg/mL (≈ 0.345 µM) | MIC, sensitive S. aureus, serum concentration 10% ([5]; 10%): 0.5 µg/mL (≈ 0.345 µM) | MIC, sensitive S. aureus, serum concentration 25% ([5]; 25%): 0.5 µg/mL (≈ 0.345 µM) | MIC, sensitive S. aureus, serum concentration 100% ([5]; 100%): 0.5 µg/mL (≈ 0.345 µM) | MIC, VanB E. faecalis ([6]; ATCC 51299): 8 µg/mL (≈ 5.52 µM) | MIC, Van B E. faecalis, serum concentration 10% ([6]; ATCC 51299, 10%): 4 µg/mL (≈ 2.76 µM) | MIC, Van B E. faecalis, serum concentration 25% ([6]; ATCC 51299, 25%): 8 µg/mL (≈ 5.52 µM) | MIC, Van B E. faecalis, serum concentration 100% ([6]; ATCC 51299, 100%): 32 µg/mL (≈ 22.1 µM) | MIC, VanA E. faecalis ([7]; BM 4166): 250 µg/mL (≈ 173 µM) | MIC, Van A E. faecalis, serum concentration 10% ([7]; BM 4166, 10%): 250 µg/mL (≈ 173 µM) | MIC, Van A E. faecalis, serum concentration 25% ([7]; BM 4166, 25%): 250 µg/mL (≈ 173 µM) | MIC, Van A E. faecalis, serum concentration 100% ([7]; BM 4166, 100%): 500 µg/mL (≈ 345 µM)

Reference: US10577395B2 (priority 2014, dated 2020)
